Measured values reported in patent US12310372B1, “Water-based insect repellent composition” (priority 2022, dated 2025).

Tested on: Culex quinquefasciatus
Assay: K & D Module Repellency Test (Complete Protection Time on volunteer's arm)
Format: in vivo
Conditions: Table 2; for Avg Duration: active package only in water/isopropanol, 100% repellency threshold (CPT)
Excerpt: Efficacy, Duration, and Percent Repellency: The primary method used to assess the efficacy and duration of an insect repellent is the “Arm-in-Cage Test”. The term “duration” as used herein refers to the time between (1) the application of the insect repellent composition and (2) when the subject first drops below the applicable minimum percent repellency threshold. For all of the testing methodologies used herein, the minimum threshold value for “percent repellency” at which the measurement for duration is cutoff is at least (≥) 90% repellency. For some testing methodologies used herein (such as the “Arm-in-Cage Test”), the minimum threshold value for “percent repellency” was 90% repellency. For other testing methodologies used herein (such as the “K & D Module Repellency Test”), the minimum threshold value for percent repellency was 100% repellency. When a duration is measured using a minimum threshold of 100% repellency, the duration may also be referred to as “Complete Protection Time” (CPT).
Another method that may be used to assess the insect repellent efficacy of an insect repellent composition is the “K & D Module Repellency Test.” The insect repellent efficacy is measured using a minimum repellency threshold of 100% repellency, which may also be referred to as the Complete Protection Time (CPT) of an insect repellent composition, which is the time period between the application of the insect repellent composition and the first insect landing.
In the K & D Module Repellency Test the test volunteer used a marker and a template, representing the base and the 3 cm.×4 cm. openings of the K & D module, to mark skin areas of his/her arm which were then treated with different insect repellent compositions at a skin dose of 0.0017 grams/cm^2 against the insect (in this case, Culex quinquefasciatus). The rectangular marks on the volunteer's arm represented where the six cells of the K & D module were positioned on the volunteer's arm. Each cell of the K & D module was filled with ten mated female mosquitoes (Culex quinquefasciatus), and the floor slide was removed from each cell to expose all mosquitoes to all skin treatments. The time between removing the floor slide of each cell and the first mosquito from the cell landing is recorded as the CPT.

| Structure (SMILES) | Avg Duration | Avg Duration (skin dose 0.0017 grams/cm^2) | Duration (Min) (Time of confirmation land) Subject 1 (active package only) | Duration (Min) (Time of confirmation land) Subject 2 (active package only) | Duration (Min) (Time of confirmation land) Subject 3 (active package only) | Duration (Min) (Time of confirmation land) Subject 4 (active package only, Subject 4) |
| --- | --- | --- | --- | --- | --- | --- |
| C=CCc1ccc(O)c(OC)c1 [CE17, eugenol] | 1.7 h | 1.67 h | 60 min | 120 min | 120 min | 100 min |
| CC(C)=CCC/C(C)=C/CO [CE36, geraniol] | 0.8 h | 0.833 h | 30 min | 60 min | 60 min |  |
